Assay results reported in patent US12029738B2, “Antiproliferative compounds and methods of use thereof” (Celgene Corporation, priority 2017, dated 2024).
Where two headings read alike, the source gives them in different places.

Columns and labels:
dopamine D2S receptor = target: T1, dopamine D2S receptor (Homo sapiens, UniProt P14416); assay: Dopamine D2S receptor radioligand binding (HEK-293); details: 10 μM
T1 construct: host or cells: HEK-293 cells (membrane homogenates)
Method: (§1) α1 Adrenergic and Dopamine D2 Receptors. Methods: Binding and functional assays for α1 adrenergic and dopamine D2 receptors were performed by Eurofins Cerep according to their methods.
Dopamine D2 Receptor. Binding at 10 μM. The binding assay evaluated the affinity of test articles for the dopamine D2 receptor in transfected human embryonic kidney (HEK)-293 cells. For determining the binding in the D2S receptor assay, test article was incubated with 0.3 nM [^3H] methylspiperone or 1 nM [^3H] 7-hydroxy-2-N,N-dipropylaminotetralin (7-OH-DPAT). [3H] Methylspiperone at 0.3 nM also was used as control ligand in the D2L binding assay. Cell membrane homogenates were incubated in duplicate at room temperature for 60 minutes with ligand in the absence or presence of test articles at 10 μM. After the incubation period, samples were filtered through glass fiber filters, the filters dried and then counted for radioactivity using a scintillation counter. Results are expressed as mean percent inhibition of control radioligand binding.
Binding IC50. To determine the binding IC50 in the D2 receptor assays, HEK-293 were tested as described above but with varying concentrations of test article. Compound A was tested at 0.01-30 μM in the D2S radioligand binding assay. […] Compound 1 was assayed at 0.03-100 μM in both the D2S and D2L assays, while Compound 2 was tested at 0.03-100 μM in the D2S assay and 0.01-100 μM in the D2L assays. The IC50 was defined as the concentration causing a half-maximum inhibition of control specific binding.

[1] = test system: MM cell lines H929-1051, KMS11, KMS-12PE, L363, OPM-P10, RPMI8226; assay: Combination with small molecule inhibitors, synergy (Cell Titer-Glo, 3 days); assay type: cell-based, human; details: Highest Single Agent method, 6 MM cell lines
Method: The effect of combining treatment with Compound 2 and small molecule inhibitors with various mechanisms was evaluated in a panel of MM cell lines. Thirteen small molecule inhibitors were selected for combination studies with Compound 2 based on their preclinical and/or activity against MM. The cell lines H929-1051, KMS11, KMS-12PE, L363, OPM-P10, and RPMI8226 were selected for this study to represent the different genetic clustering groups across MM cell lines. […] Combination agents were dosed in a 6 point dose-response curve (DRC) at a 1:3 dilution, Compound 2 was dosed in a 10 point DRC, also at a 1:3 dilution. The combination experiments were run twice, each time with replicate data on separate plates. Compounds were pre-spotted into the appropriate wells of 384-well plates using an acoustic dispenser. All MM cell lines were cultured in an incubator at 37° C. with 5% CO2 using the indicated cell culture media containing 1× Penicillin-Streptomycin. Cells were added to the compound containing 384-well plates using a Multidrop Combi Reagent Dispenser and allowed to incubate for 3 days at 37° C. with 5% CO2. After 3 days, cells were assessed for their level of ATP content via Cell Titer-Glo measured on a luminescence detector (PerkinElmer Envision).
The Highest Single Agent (HAS) method was used to detect synergy in the dose response curve data. Combinations were analyzed from a response surface perspective. A statistical framework (Van Der Borght, K., et al., BIGL: Biochemically Intuitive Generalized Loewe null model for prediction of the expected combined effect compatible with partial agonism and antagonism; Scientific Reports, 7 (1), 17935-1-17935-9 (2017)) was incorporated into the analysis on top of the HAS null model with two statistical tests: 1) Complete response surface differs from null model, 2) Single well differs from null model.

[2] = test system: non-selective α1 adrenergic receptor; assay: α1 adrenergic receptor radioligand binding ([3H]prazosin); details: 10 μM; rat cerebral cortex; 0.25 nM [3H]prazosin
Method: as §1
α1 Adrenergic Receptor. Binding at 10 μM. The binding assay evaluated the affinity of test article for the non-selective α1 adrenergic receptor in rat cerebral cortex. Membrane homogenates of cerebral cortex were incubated in duplicate for 60 minutes at room temperature with 0.25 nM [^3H]prazosin in the absence or presence of test articles at 10 μM. After the incubation period, samples were filtered through glass fiber filters, the filters dried and then counted for radioactivity using a scintillation counter. Results are expressed as mean percent inhibition of control radioligand binding.
Binding IC50. […] Compound A was tested at 0.01-30 μM. […] Compound 1 and Compound 2, the S-enantiomer of Compound 1, were assayed at 0.03-100 μM. Radioactivity was measured as described above. The IC50 was defined as the concentration causing a half-maximum inhibition of control specific binding.

K562 cells = assay: Coculture of compound-treated IL-2-activated PBMCs with K562 cells; assay type: cell-based, human; details: Homo sapiens, K562; IL-2-activated PBMCs treated 72 h; 4 h coculture; read-out: IC50 of compound-treated PBMCs for direct K562 cell killing
Method: Coculture Experiments with Peripheral Blood Mononuclear Cells and K562 Cells. Methods: Human Peripheral Blood Mononuclear Cell (PBMC) Preparation: PBMCs isolated from healthy donors were cultured in RPMI 1640 medium with 10% FBS at a density of 1×10^6 cells/mL.
Cell Culture: K562 cells were kept in log phase, and cell density and viability were monitored by trypan blue exclusion using the Vi-CELL® XR cell viability analyzer (Beckman Coulter, Brea, CA).
Assay Procedures: Freshly isolated human PBMCs were cultured with recombinant IL-2 at concentration of 20 units/mL for 72 h. Peripheral blood mononuclear cells were then spun down and re-suspended in fresh RPMI complete medium to 2×10^6 cells/mL. Cells were then treated with DMSO or compounds at the indicated concentrations and incubated for an additional 72 h. The PBMCs were then washed twice in fresh RPMI complete medium prior to coculture. K562 cells were re-suspended to a cell density of 1×10^6/mL and stained with 1 μM CellTrace CFSE according to manufacturer's instructions. The labeled K562 cells were then seeded into a 96-well round bottom plate at 1×10^5 cells/well. Peripheral blood mononuclear cells were then transferred into the same 96-well plate at a 1:15 ratio, in triplicate and incubated at 37° C. for 4 h. Specific target cell lysis by PBMC cells was measured using Annexin V-fluorescein isothiocyanate (FITC) and propidium iodide (PI) according to manufacturer's instructions and samples were run on the FACS Array scan. Non-labeled K562 cells, CellTrace CFSE-labeled K562 cells, and Annexin V-FITC- and PI labeled untreated K562 cells were included in each assay as controls.

H929-1051 = assay: PBMC and MM cell treatment assay (single culture vs co-culture); assay type: cell-based, human; details: Homo sapiens, PBMC, H929-1051, read-out: Immune-mediated Cell Killing IC50
Method: (§2) PBMC and MM Cell Treatment Assay Procedure. Ninety-six-well dishes were pre-coated with anti-CD3 antibody (OKT3, 3 μg/mL) and incubated at 4° C. overnight before the start of the experiment. Frozen PBMC donor cells were thawed at 37° C. for 2 minutes in RPMI medium with 10% FBS and cell counts and viability were measured on the Vi-CELL analyzer. Peripheral blood mononuclear cells were washed and diluted to 1×10^6 cells/mL and dispensed into the compound-treated plates in a total volume of 200 μL. Cells were incubated with compounds for 2 h before being transferred onto anti-CD3-coated plates and incubated for an additional 72 h. At the same time, MM cell lines (NCI-H929, H929-1051, OPM2, OPM2-P10) were diluted to a final concentration of 0.1×10^6 cells/mL and labeled with CellTrace CFSE according to manufacturer's instructions. Multiple myeloma cell lines were then dispensed into compound-treated plates at a total volume of 200 μL and incubated for 72 h. After 72 h, the PBMCs and MM cells were counted and transferred into a U-bottom 96-well plate at a final T:E ratio of 1:5. After 24 h coculture, specific target cell lysis by PBMC cells was measured using Annexin V-AF647 and 7-AAD according to manufacturer's instructions and samples were run on the Attune NxT Cytometer.
(§3) Because preincubation of immune cells with Compound 2 enhanced the targeting and lysing of MM cells, the effect of preincubation of MM cells with Compound 2 on their susceptibility to immune-mediated killing was also explored (FIG. 16A, FIG. 16B, FIG. 16C, and FIG. 16D, Table 12). Four MM cell lines and anti-CD3 antibody-activated PBMCs were separately preincubated with Compound 2, lenalidomide, or pomalidomide for 72 h. When anti-CD3 antibody-activated PBMCs and MM lines were both pretreated with Compound 2, lenalidomide, or pomalidomide, followed by co-culture, the effects on the PBMC-induced MM cell lysis were enhanced both in the potency and magnitude of the killing response. […] For the pomalidomide-resistant OPM2-P10 cell line, Compound 2 treatment of the MM cells enhanced the immune-mediated killing by ˜3000-fold (Table 12).

NCI-H929 = assay: as above; assay type: cell-based, human; details: Homo sapiens, NCI-H929, NCI-H929, read-out: Immune-mediated Cell Killing IC50
Method: as §2, §3

OPM2-P10 = assay: as above; assay type: cell-based, human; details: Homo sapiens, PBMC, read-out: Immune-mediated Cell Killing IC50
Method: as §2, §3

OPM2 = assay: as above; assay type: cell-based; details: Homo sapiens, OPM-2, OPM2, read-out: Immune-mediated Cell Killing IC50
Method: as §2, §3

RPMI-8226 = assay: as above; assay type: cell-based; details: Homo sapiens, RPMI-8226, RPMI-8226, read-out: Immune-mediated Cell Killing IC50

T1 sequence (P14416 1-414 isoform P14416-2): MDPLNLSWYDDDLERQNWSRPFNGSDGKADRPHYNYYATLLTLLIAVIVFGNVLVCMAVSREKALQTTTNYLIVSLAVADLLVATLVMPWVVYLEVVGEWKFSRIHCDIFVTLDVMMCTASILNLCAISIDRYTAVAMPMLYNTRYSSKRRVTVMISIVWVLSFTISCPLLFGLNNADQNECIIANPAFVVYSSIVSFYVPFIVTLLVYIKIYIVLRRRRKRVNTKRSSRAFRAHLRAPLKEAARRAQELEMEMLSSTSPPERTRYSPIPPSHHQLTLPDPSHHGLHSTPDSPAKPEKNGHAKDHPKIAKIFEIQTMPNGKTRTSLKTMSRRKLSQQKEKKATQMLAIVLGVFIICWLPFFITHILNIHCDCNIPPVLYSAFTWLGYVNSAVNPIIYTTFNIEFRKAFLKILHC

## O=C1CCC(N2Cc3c(OCc4ccc(CN5CCN(c6ccccc6)CC5)cc4)cccc3C2=O)C(=O)N1 (racemic) [Ex. 5.229]
Dopamine D2S receptor
  Dopamine D2S % Inhibition (10 μM): 98.7%

## COc1ccc(-c2c(-c3ccc(C#N)c(F)c3)nc(N3CCC(N)CC3)n(C)c2=O)cc1F [Compound E, 4-[2-(4-amino-piperidin-1-yl)-5-(3-fluoro-4-methoxy-phenyl)-1-methyl-6-oxo-1,6-dihydropyrimidin-4-yl]-2-fluoro-benzonitrile]
[1]
  synergistic activity in combination with Compound 2 (cell lines): synergistic in L363 and KMS12-PE cells

## O=C1CCC(N2Cc3c(OCc4ccc(CN5CCN(c6ccc(F)cc6)CC5)cc4)cccc3C2=O)C(=O)N1 (racemic) [Ex. 5.273]
[2]
  Adrenergic α1 (non-selective) % Inhibition (10 μM): 100.3%
Dopamine D2S receptor
  Dopamine D2S % Inhibition (10 μM): 94.7%

## Nc1cccc2c1CN(C1CCC(=O)NC1=O)C2=O (stereo not drawn) [Lenalidomide, lenalidomide]
K562 cells
  IC50: 20 nM
H929-1051; Co-culture with PBMCs
  IC50: 878 nM
H929-1051; Single culture
  IC50: > 10000 nM
NCI-H929; Co-culture with PBMCs
  IC50: 317 nM
NCI-H929; Single culture
  IC50: > 10000 nM
OPM2-P10; Co-culture with PBMCs
  IC50: 8090 nM
OPM2-P10; Single culture
  IC50: > 10000 nM
OPM2; Co-culture with PBMCs
  IC50: 1720 nM
OPM2; Single culture
  IC50: > 10000 nM
RPMI-8226; Co-culture with PBMCs
  IC50: 124 nM
RPMI-8226; Single culture
  IC50: > 10000 nM

## O=C(CCCCCCNC(=O)c1cnc(N(c2ccccc2)c2ccccc2Cl)nc1)NO [ACY241]
[1]
  synergistic activity in combination with Compound 2 (cell lines): synergistic in L363/OPM2-P10

## O=C1CCC(N2C(=O)c3cccc(OCc4ccc(CN5CCN(c6ccc(F)cc6)CC5)cc4)c3C2=O)C(=O)N1 (racemic) [Ex. 5.289]
Dopamine D2S receptor
  Dopamine D2S % Inhibition (10 μM): 92.4%

## CO[C@H]1/C=C/C[C@H](C)[C@@H](C)S(=O)(=O)NC(=O)c2ccc3c(c2)N(C[C@@H]2CC[C@H]21)C[C@@]1(CCCc2cc(Cl)ccc21)CO3 [AMG176]
[1]
  synergistic activity in combination with Compound 2 (cell lines): synergistic activity in three cell lines (KMS11, KMS12-PE, L363)

## Cc1sc2c(c1C)C(c1ccc(Cl)cc1)=N[C@@H](CC(=O)Nc1ccc(O)cc1)c1nnc(C)n1-2 [birabresib]
[1]
  synergistic activity in combination with Compound 2 (cell lines): synergistic activity in the MM cells

## MIK665
[1]
  synergistic activity in combination with Compound 2 (cell lines): did not show significant synergy in the 6 MM cell lines tested

## Cn1cc(-c2cc(S(C)(=O)=O)ccc2OCC2CC2)c2ccccc2c1=O [Compound D, 4-[2-(cyclopropylmethoxy)-5-(methanesulfonyl)phenyl]-2-methylisoquinolin-1(2H)-one]
[1]
  synergistic activity in combination with Compound 2 (cell lines): synergistic activity in the MM cells
